Laboratory results taken from US20200392116A1, “SUBSTITUTED HETEROCYCLES AS c-MYC TARGETING AGENTS” (NORTHWESTERN UNIVERSITY, priority 2019, published 2020).
Where two headings read alike, the source gives them in different places.

How the values were obtained:
[1] = tested on: CMV reporter; test: CMV reporter assay (control reporter beside the Ebox reporter); format: cell-based
[2] = tested on: MYC transcriptional activity (c-Myc E-box-luciferase reporter, MycCap cells); test: MYC E-box luciferase reporter assay; format: cell-based; conditions: Mus musculus, Myc-CaP, read-out: Ebox reporter: IC50
Protocol: To test the compounds, we evaluated the in silico hits in a MYC E-Box luciferase reporter assay to measure the effects of these compounds (referred to as Min-1 to Min-32) on MYC transcriptional activity. […] (See FIG. 2).
MycCap cells stably expressing luciferase with CMV promoter (MycCap-luc) or c-Myc E-box-luciferase reporter (MycCap Ebox-luc) were plated at 10000 cells per well in 96 well white-wall plate. Serial dilutions of 361 were treated next day. At 4 hours of treatment, luminescence signal was determined immediately after adding 150 μg/ml of Luciferin to the well. (See FIG. 12).

Compound | IC50 [1] [µM] | IC50 ([2]; given as numeric bound) [µM] | IC50 ([2]; class symbols) [µM]
CC(Oc1ccc(-c2cc(C(F)(F)F)n(C)n2)c(O)c1-c1ccc(Cl)c(C(F)(F)F)c1)c1ccc(Cl)cc1 (centres unmarked) [NUCC-0202437] | > 50 | > 50 | –
NC(=O)c1cc(-c2ccc(OCc3ccc(Cl)cc3)c(-c3ccc(Cl)c(C(F)(F)F)c3)c2O)[nH]n1 [NUCC-0202521] | 34 | – | 10 to 50
CNC(=O)c1cc(-c2ccc(OCc3ccc(Cl)cc3)c(-c3ccc(Cl)c(C(F)(F)F)c3)c2O)[nH]n1 [NUCC-0202522] | 43 | – | 10 to 50
CN(C)C(=O)c1cc(-c2ccc(OCc3ccc(Cl)cc3)c(-c3ccc(Cl)c(C(F)(F)F)c3)c2O)[nH]n1 [NUCC-0202523] | > 50 | > 50 | –
Cn1nc(C(=O)O)cc1-c1ccc(OCc2ccc(Cl)cc2)c(-c2ccc(Cl)c(C(F)(F)F)c2)c1O [NUCC-0202524] | > 50 | – | 10 to 50
Cn1nc(-c2ccc(OCc3ccc(Cl)cc3)c(-c3ccc(Cl)c(C(F)(F)F)c3)c2O)cc1C(=O)O [NUCC-0202525] | > 50 | – | 10 to 50
Cn1nc(C(N)=O)cc1-c1ccc(OCc2ccc(Cl)cc2)c(-c2ccc(Cl)c(C(F)(F)F)c2)c1O [NUCC-0202526] | > 50 | – | 10 to 50
CN(C)C(=O)c1cc(-c2ccc(OCc3ccc(Cl)cc3)c(-c3ccc(Cl)c(C(F)(F)F)c3)c2O)n(C)n1 [NUCC-0202527] | > 50 | – | 10 to 50
C=C(C)c1cc(-c2ccc(OCc3ccc(Cl)cc3)c(-c3ccc(C)c(C)c3)c2C)nn1C [NUCC-0202528] | 28 | – | 10 to 50
CNC(=O)c1cc(-c2ccc(OCc3ccc(Cl)cc3)c(-c3ccc(Cl)c(C(F)(F)F)c3)c2O)nn1C [NUCC-0202529] | > 50 | – | 10 to 50
CCOC(=O)c1cc(-c2ccc(OCc3ccc(Cl)cc3)c(-c3ccc(Cl)c(C(F)(F)F)c3)c2O)[nH]n1 [NUCC-0202530] | > 50 | – | 10 to 50
CN(C)C(=O)c1cc(-c2ccc(OCc3ccc(Cl)cc3)c(-c3ccc(Cl)c(C(F)(F)F)c3)c2O)nn1C [NUCC-0202531] | > 50 | > 50 | –
Cc1cc(-c2ccc(OCc3ccc(Cl)cc3)c(-c3ccc(Cl)c(C(F)(F)F)c3)c2O)[nH]n1 [NUCC-0202532] | > 50 | – | 10 to 50
Cc1cc(-c2ccc(OCc3ccc(Cl)cc3)c(-c3ccc(Cl)c(C(F)(F)F)c3)c2O)n(C)n1 [NUCC-0202533] | > 50 | – | 10 to 50
Cc1cc(-c2ccc(OCc3ccc(Cl)cc3)c(-c3ccc(Cl)c(C(F)(F)F)c3)c2O)nn1C [NUCC-0202534] | > 50 | > 50 | –
Oc1cc(-c2ccc(OCc3ccc(Cl)cc3)c(-c3ccc(Cl)c(C(F)(F)F)c3)c2O)[nH]n1 [NUCC-0202535] | > 50 | – | 10 to 50
Oc1cc(OCc2ccc(Cl)cc2)ccc1-c1[nH]nc(C(F)(F)F)c1Oc1ccc(Cl)c(F)c1 [NUCC-0202536] | 44 | – | 5 to 10
Cn1nc(C(F)(F)F)c(Oc2ccc(Cl)c(F)c2)c1-c1ccc(OCc2ccc(Cl)cc2)cc1O [NUCC-0202537] | 40 | – | 5 to 10
Cn1nc(C(F)(F)F)cc1-c1ccc(OCc2ccc(Cl)cc2)c(-c2ccc(Cl)c(C(F)(F)F)c2)c1O [NUCC-0202538] | > 50 | > 50 | –
CNC(=O)c1cc(-c2ccc(OCc3ccc(Cl)cc3)c(-c3ccc(Cl)c(C(F)(F)F)c3)c2O)n(C)n1 [NUCC-0202635] | > 50 | – | 10 to 50
Oc1cc(OCc2ccc(Cl)cc2)ccc1-c1[nH]nc(C(F)(F)F)c1Oc1ccc(F)c(Cl)c1 [NUCC-0202636] | 41 | – | 5 to 10
Cn1nc(C(F)(F)F)c(Oc2ccc(F)c(Cl)c2)c1-c1ccc(OCc2ccc(Cl)cc2)cc1O [NUCC-0202637] | 43 | – | 5 to 10
Cn1nc(O)cc1-c1ccc(OCc2ccc(Cl)cc2)c(-c2ccc(Cl)c(C(F)(F)F)c2)c1O [NUCC-0202638] | > 50 | – | 10 to 50
COc1c(C(F)(F)F)n[nH]c1-c1ccc(OCc2ccc(Cl)cc2)cc1O [NUCC-0202639] | 32 | – | 5 to 10
Cn1nc(C(F)(F)F)cc1-c1ccc(OCc2ccc(Cl)cc2)c(-c2ccc(Cl)c(C(F)(F)F)c2)n1 [NUCC-0202640] | > 50 | > 50 | –

Compound | IC50 [1] [µM] | IC50 ([2]; given as numeric bound) [µM] | IC50 ([2]; class symbols) [µM]
Cn1nc(C(F)(F)F)cc1-c1ccc(OCc2ccc(Cl)cc2)c(-c2ccc(Cl)c(C(F)(F)F)c2)c1F [NUCC-0202641] | > 50 | > 50 | –
Cn1nc(-c2cc(Cl)c(OCc3ccc(Cl)cc3)c(-c3ccc(Cl)c(C(F)(F)F)c3)c2O)cc1C(F)(F)F [NUCC-0202642] | > 50 | > 50 | –
Cn1nc(-c2ccc(OCc3ccc(Cl)cc3)cc2O)c(Oc2ccc(Cl)c(F)c2)c1C(F)(F)F [NUCC-0202643] | > 50 | – | < 5
Cn1nc(-c2ccc(OCc3ccc(Cl)cc3)c(-c3ccc(Cl)c(C(F)(F)F)c3)c2O)cc1O [NUCC-0202644] | > 50 | – | 10 to 50
Cn1nc(C(F)(F)F)cc1-c1cc(Cl)c(OCc2ccc(Cl)cc2)c(-c2ccc(Cl)c(C(F)(F)F)c2)c1O [NUCC-0202648] | > 50 | – | < 5
Oc1c(-c2cc(C(F)(F)F)n[nH]2)cc(Cl)c(OCc2ccc(Cl)cc2)c1-c1ccc(Cl)c(C(F)(F)F)c1 [NUCC-0202649] | > 50 | – | < 5
Cn1nc(C(F)(F)F)cc1-c1ccc(OCc2ccc(Cl)cc2)c(-c2ccc(Cl)c(C(F)(F)F)c2)c1Cl [NUCC-0202650] | > 50 | > 50 | –
COc1c(C(F)(F)F)nn(C)c1-c1ccc(OCc2ccc(Cl)cc2)cc1O [NUCC-0202651] | > 50 | – | 5 to 10
COc1c(-c2ccc(OCc3ccc(Cl)cc3)cc2O)nn(C)c1C(F)(F)F [NUCC-0202652] | > 50 | > 50 | –
Cn1nc(C(F)(F)F)cc1-c1cnc(OCc2ccc(Cl)cc2)c(-c2ccc(Cl)c(C(F)(F)F)c2)c1O [NUCC-0202686] | 31 | – | < 5
Oc1c(-c2cc(C(F)(F)F)n[nH]2)cc(F)c(OCc2ccc(Cl)cc2)c1-c1ccc(Cl)c(C(F)(F)F)c1 [NUCC-0202687] | > 50 | – | < 5
Cn1nc(C(F)(F)F)cc1-c1ccc(N(Cc2ccc(Cl)cc2)C(=O)c2cncc(C(F)(F)F)c2)cc1O [NUCC-0202688] | > 50 | – | 5 to 10
Cn1nc(-c2ccc(N(Cc3ccc(Cl)cc3)C(=O)c3cncc(C(F)(F)F)c3)cc2O)cc1C(F)(F)F [NUCC-0202689] | > 50 | > 50 | –
Cn1nc(C(F)(F)F)cc1-c1ccc(NC(=O)c2ccc(Cl)c(C(F)(F)F)c2)cc1O [NUCC-0202690] | > 50 | – | < 5
Cn1nc(-c2ccc(NC(=O)c3ccc(Cl)c(C(F)(F)F)c3)cc2O)cc1C(F)(F)F [NUCC-0202691] | > 50 | > 50 | –
Cn1nc(C(F)(F)F)cc1-c1ccc(N(Cc2ccc(Cl)cc2)C(=O)c2cncc(F)c2)cc1O [NUCC-0202692] | > 50 | – | 5 to 10
Cn1nc(C(F)(F)F)cc1-c1ccc(N(Cc2ccc(Cl)cc2)C(=O)c2ccc3nccn3c2)cc1O [NUCC-0202693] | > 50 | – | < 5
Cn1nc(-c2ccc(N(Cc3ccc(Cl)cc3)C(=O)c3ccc(Cl)cc3)cc2O)cc1C(F)(F)F [NUCC-0202694] | > 50 | > 50 | –
COc1cccc(C(=O)N(Cc2ccc(Cl)cc2)c2ccc(-c3cc(C(F)(F)F)n(C)n3)c(O)c2)c1 [NUCC-0202695] | > 50 | > 50 | –
Cn1nc(-c2ccc(N(Cc3ccc(Cl)cc3)C(=O)c3ccnc(C(F)(F)F)c3)cc2O)cc1C(F)(F)F [NUCC-0202696] | > 50 | > 50 | –
Cn1nc(-c2ccc(N(Cc3ccc(Cl)cc3)C(=O)c3cncc(F)c3)cc2O)cc1C(F)(F)F [NUCC-0202697] | > 50 | > 50 | –
COc1cccc(C(=O)N(Cc2ccc(Cl)cc2)c2ccc(-c3cc(C(F)(F)F)nn3C)c(O)c2)c1 [NUCC-0202698] | > 50 | – | 5 to 10
Cn1nc(-c2ccc(N(Cc3ccc(Cl)cc3)C(=O)c3cccc(Cl)c3)cc2O)cc1C(F)(F)F [NUCC-0202699] | > 50 | > 50 | –
Cn1nc(C(F)(F)F)cc1-c1ccc(N(Cc2ccc(Cl)cc2)C(=O)c2ccnc(C(F)(F)F)c2)cc1O [NUCC-0202700] | > 50 | – | < 5
